≈ marks a conversion by molar mass, not a printed value. Positions of bridges follow the written chain, without caps; N, C: chain ends. Non-standard residues stand in square brackets, D forms with d. Residues, ends and D or L forms follow the SMILES beside them. *: point of attachment. Tle = CC(C)(C)[C@H](N)C(=O)O; dNva = CCC[C@@H](N)C(=O)O; Octanoyl = CCCCCCCC(=O)*; Orn = NCCC[C@H](N)C(=O)O; Dab = NCC[C@H](N)C(=O)O; Dap = NC[C@H](N)C(=O)O

This note sets out measurements from patent USRE48335E1, “Polymyxin derivatives as antimicrobial compounds” (priority 2014, dated 2020).

One assay concerns Acinetobacter baumannii. The gist of the method: (§1)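 Lipopeptides, as trifluoroacetate salts, tested for MIC in CAMHB by CLSI broth microdilution, with polymyxin B (sulphate) as comparator.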
In another assay the test system is Enterobacter cloacae. Put shortly:
as §1

The next assay has as its system Pseudomonas aeruginosa. Put shortly: as §1

Regarding `CCCCCCCC(=O)N[C@@H](CCN)C(=O)N[C@H](C(=O)N[C@@H](CN)C(=O)N[C@H]1CCNC(=O)[C@H]([C@@H](C)O)NC(=O)[C@H](CCN)NC(=O)[C@H](CCN)NC(=O)[C@H](C(C)(C)C)NC(=O)[C@@H](CC(C)C)NC(=O)[C@H](CCN)NC1=O)[C@@H](C)O` [Compound 47] (Octanoyl-[Dab]T[Dap][Dab][Dab][dL][Tle][Dab][Dab]T; lactam 4-C), in the assay with Acinetobacter baumannii, the “Minimum inhibitory concentration, Ab A ATCC 17978” value was determined as 2 µg/mL (≈ 1.75 µM); the “Minimum inhibitory concentration, Ab ATCC 19606” value stood at 8 µg/mL (≈ 7.01 µM); the “Minimum inhibitory concentration, Ab FADDI-AB034” value turned out to be 1 µg/mL (≈ 0.876 µM). Also, in the assay on Enterobacter cloacae, the “Minimum inhibitory concentration, Ec FADDI-EC001” value was found to be 0.5 µg/mL (≈ 0.438 µM); the “Minimum inhibitory concentration, Ec FADDI-EC003” value worked out at 0.5 µg/mL (≈ 0.438 µM); the “Minimum inhibitory concentration, Ec FADDI-EC006” value was determined as 0.25 µg/mL (≈ 0.219 µM). Also, in the assay on Pseudomonas aeruginosa, the “Minimum inhibitory concentration, Pa ATCC 27853” value is 1 µg/mL (≈ 0.876 µM); the “Minimum inhibitory concentration, Pa FADDI-PA022” value is 1 µg/mL (≈ 0.876 µM); the “Minimum inhibitory concentration, Pa FADDI-PA025” value was 8 µg/mL (≈ 7.01 µM).

Consider `CCCCCCCC(=O)N[C@@H](CN)C(=O)N[C@H](C(=O)N[C@@H](CN)C(=O)N[C@H]1CCNC(=O)[C@H]([C@@H](C)O)NC(=O)[C@H](CCN)NC(=O)[C@H](CCN)NC(=O)[C@H]([C@@H](C)O)NC(=O)[C@@H](CC(C)C)NC(=O)[C@H](CCN)NC1=O)[C@@H](C)O` [Compound 48] (Octanoyl-[Dap]T[Dap][Dab][Dab][dL]T[Dab][Dab]T; lactam 4-C), for which, in the assay with Acinetobacter baumannii, the “Minimum inhibitory concentration, Ab A ATCC 17978” value amounted to 1 µg/mL (≈ 0.897 µM); the “Minimum inhibitory concentration, Ab ATCC 19606” value amounted to 1 µg/mL (≈ 0.897 µM); the “Minimum inhibitory concentration, Ab FADDI-AB034” value is 1 µg/mL (≈ 0.897 µM). Besides, in the assay on Enterobacter cloacae, the “Minimum inhibitory concentration, Ec FADDI-EC001” value turned out to be 0.25 µg/mL (≈ 0.224 µM); the “Minimum inhibitory concentration, Ec FADDI-EC003” value is less than 0.125 µg/mL; the “Minimum inhibitory concentration, Ec FADDI-EC006” value was less than 0.125 µg/mL. Also, in the assay on Pseudomonas aeruginosa, the “Minimum inhibitory concentration, Pa ATCC 27853” value turned out to be 0.5 µg/mL (≈ 0.448 µM); the “Minimum inhibitory concentration, Pa FADDI-PA022” value worked out at 2 µg/mL (≈ 1.79 µM); the “Minimum inhibitory concentration, Pa FADDI-PA025” value is 4 µg/mL (≈ 3.59 µM).

For `CCCCCCCC(=O)N[C@@H](CCN)C(=O)N[C@H](C(=O)N[C@@H](CN)C(=O)N[C@H]1CCNC(=O)[C@H]([C@@H](C)O)NC(=O)[C@H](CCN)NC(=O)[C@H](CCN)NC(=O)[C@H]([C@@H](C)O)NC(=O)[C@@H](CCC)NC(=O)[C@H](CCN)NC1=O)[C@@H](C)O` [Compound 49] (Octanoyl-[Dab]T[Dap][Dab][Dab][dNva]T[Dab][Dab]T; lactam 4-C), in the assay on Acinetobacter baumannii, the “Minimum inhibitory concentration, Ab A ATCC 17978” value amounted to 0.5 µg/mL (≈ 0.448 µM); the “Minimum inhibitory concentration, Ab ATCC 19606” value was 1 µg/mL (≈ 0.897 µM); the “Minimum inhibitory concentration, Ab FADDI-AB034” value came to 0.5 µg/mL (≈ 0.448 µM). For the same molecule, in the assay with Enterobacter cloacae, the “Minimum inhibitory concentration, Ec FADDI-EC001” value is 0.5 µg/mL (≈ 0.448 µM); the “Minimum inhibitory concentration, Ec FADDI-EC003” value was 0.5 µg/mL (≈ 0.448 µM); the “Minimum inhibitory concentration, Ec FADDI-EC006” value worked out at 0.25 µg/mL (≈ 0.224 µM). In the assay with Pseudomonas aeruginosa, the “Minimum inhibitory concentration, Pa ATCC 27853” value is 0.5 µg/mL (≈ 0.448 µM); the “Minimum inhibitory concentration, Pa FADDI-PA022” value came to 0.25 µg/mL (≈ 0.224 µM); the “Minimum inhibitory concentration, Pa FADDI-PA025” value worked out at 16 µg/mL (≈ 14.3 µM).

In the case of `CCCCCCCC(=O)N[C@@H](CCN)C(=O)N[C@H](C(=O)N[C@@H](CN)C(=O)N[C@H]1CCNC(=O)[C@H]([C@@H](C)O)NC(=O)[C@H](CN)NC(=O)[C@H](CCN)NC(=O)[C@H]([C@@H](C)O)NC(=O)[C@@H](CC(C)C)NC(=O)[C@H](CCN)NC1=O)[C@@H](C)O` [Compound 50] (Octanoyl-[Dab]T[Dap][Dab][Dab][dL]T[Dab][Dap]T; lactam 4-C), in the assay with Acinetobacter baumannii, the “Minimum inhibitory concentration, Ab A ATCC 17978” value worked out at 0.5 µg/mL (≈ 0.448 µM); the “Minimum inhibitory concentration, Ab ATCC 19606” value amounted to 0.5 µg/mL (≈ 0.448 µM); the “Minimum inhibitory concentration, Ab FADDI-AB034” value turned out to be 1 µg/mL (≈ 0.897 µM). Further, in the assay on Enterobacter cloacae, the “Minimum inhibitory concentration, Ec FADDI-EC001” value was less than 0.125 µg/mL; the “Minimum inhibitory concentration, Ec FADDI-EC003” value is less than 0.125 µg/mL; the “Minimum inhibitory concentration, Ec FADDI-EC006” value was less than 0.125 µg/mL. For the same molecule, in the assay with Pseudomonas aeruginosa, the “Minimum inhibitory concentration, Pa ATCC 27853” value is 1 µg/mL (≈ 0.897 µM); the “Minimum inhibitory concentration, Pa FADDI-PA022” value was 0.5 µg/mL (≈ 0.448 µM); the “Minimum inhibitory concentration, Pa FADDI-PA025” value is more than 32 µg/mL.

On to `CCCCCCCC(=O)N[C@@H](CCN)C(=O)N[C@H](C(=O)N[C@@H](CN)C(=O)N[C@H]1CCNC(=O)[C@H]([C@@H](C)O)NC(=O)[C@H](CCN)NC(=O)[C@H](CN)NC(=O)[C@H]([C@@H](C)O)NC(=O)[C@@H](CC(C)C)NC(=O)[C@H](CCN)NC1=O)[C@@H](C)O` [Compound 51] (Octanoyl-[Dab]T[Dap][Dab][Dab][dL]T[Dap][Dab]T; lactam 4-C), for which, in the assay with Acinetobacter baumannii, the “Minimum inhibitory concentration, Ab A ATCC 17978” value was 4 µg/mL (≈ 3.59 µM); the “Minimum inhibitory concentration, Ab ATCC 19606” value stood at 4 µg/mL (≈ 3.59 µM); the “Minimum inhibitory concentration, Ab FADDI-AB034” value worked out at 8 µg/mL (≈ 7.17 µM). Besides, in the assay on Enterobacter cloacae, the “Minimum inhibitory concentration, Ec FADDI-EC001” value worked out at 0.25 µg/mL (≈ 0.224 µM); the “Minimum inhibitory concentration, Ec FADDI-EC003” value was 0.25 µg/mL (≈ 0.224 µM); the “Minimum inhibitory concentration, Ec FADDI-EC006” value was found to be 1 µg/mL (≈ 0.897 µM). In the assay with Pseudomonas aeruginosa, the “Minimum inhibitory concentration, Pa ATCC 27853” value worked out at 1 µg/mL (≈ 0.897 µM); the “Minimum inhibitory concentration, Pa FADDI-PA022” value came out at 0.5 µg/mL (≈ 0.448 µM); the “Minimum inhibitory concentration, Pa FADDI-PA025” value is more than 32 µg/mL.

For the molecule `CCCCCCCC(=O)N[C@@H](CCN)C(=O)N[C@H](C(=O)N[C@@H](CN)C(=O)N[C@H]1CCNC(=O)[C@H]([C@@H](C)O)NC(=O)[C@H](CCN)NC(=O)[C@H](CCN)NC(=O)[C@H]([C@@H](C)O)NC(=O)[C@@H](CC(C)C)NC(=O)[C@H](CN)NC1=O)[C@@H](C)O` [Compound 52] (Octanoyl-[Dab]T[Dap][Dab][Dap][dL]T[Dab][Dab]T; lactam 4-C), in the assay with Acinetobacter baumannii, the “Minimum inhibitory concentration, Ab A ATCC 17978” value amounted to 0.5 µg/mL (≈ 0.448 µM); the “Minimum inhibitory concentration, Ab ATCC 19606” value is 1 µg/mL (≈ 0.897 µM); the “Minimum inhibitory concentration, Ab FADDI-AB034” value stood at 0.5 µg/mL (≈ 0.448 µM). Besides, in the assay with Enterobacter cloacae, the “Minimum inhibitory concentration, Ec FADDI-EC001” value was 0.25 µg/mL (≈ 0.224 µM); the “Minimum inhibitory concentration, Ec FADDI-EC003” value amounted to 0.25 µg/mL (≈ 0.224 µM); the “Minimum inhibitory concentration, Ec FADDI-EC006” value was 0.5 µg/mL (≈ 0.448 µM). Further, in the assay on Pseudomonas aeruginosa, the “Minimum inhibitory concentration, Pa ATCC 27853” value was 0.5 µg/mL (≈ 0.448 µM); the “Minimum inhibitory concentration, Pa FADDI-PA022” value was determined as 1 µg/mL (≈ 0.897 µM); the “Minimum inhibitory concentration, Pa FADDI-PA025” value is more than 32 µg/mL.

On to `CCCCCCCC(=O)N[C@@H](CCN)C(=O)N[C@H](C(=O)N[C@@H](CN)C(=O)N[C@H]1CCNC(=O)[C@H]([C@@H](C)O)NC(=O)[C@H](CCCN)NC(=O)[C@H](CCN)NC(=O)[C@H]([C@@H](C)O)NC(=O)[C@@H](CC(C)C)NC(=O)[C@H](CCN)NC1=O)[C@@H](C)O` [Compound 53] (Octanoyl-[Dab]T[Dap][Dab][Dab][dL]T[Dab][Orn]T; lactam 4-C), for which, in the assay with Acinetobacter baumannii, the “Minimum inhibitory concentration, Ab A ATCC 17978” value is 8 µg/mL (≈ 7 µM); the “Minimum inhibitory concentration, Ab ATCC 19606” value worked out at 16 µg/mL (≈ 14 µM); the “Minimum inhibitory concentration, Ab FADDI-AB034” value was 8 µg/mL (≈ 7 µM). For the same molecule, in the assay on Enterobacter cloacae, the “Minimum inhibitory concentration, Ec FADDI-EC001” value was 0.5 µg/mL (≈ 0.437 µM); the “Minimum inhibitory concentration, Ec FADDI-EC003” value stood at 2 µg/mL (≈ 1.75 µM); the “Minimum inhibitory concentration, Ec FADDI-EC006” value came to 8 µg/mL (≈ 7 µM). Further, in the assay on Pseudomonas aeruginosa, the “Minimum inhibitory concentration, Pa ATCC 27853” value worked out at 8 µg/mL (≈ 7 µM); the “Minimum inhibitory concentration, Pa FADDI-PA022” value was 2 µg/mL (≈ 1.75 µM); the “Minimum inhibitory concentration, Pa FADDI-PA025” value is more than 32 µg/mL.
